Assay results as given in ChEMBL document CHEMBL4699597, “Tabernaesines A-I, Cytotoxic Aspidosperma-Aspidosperma-Type Bisindole Alkaloids from Tabernaemontana pachysiphon” (J Nat Prod, 2020).

Experiments:
Type in all cases: functional, cell-based
[1] = tested on: MDA-MB-231; assay: Cytotoxicity against human MDA-MB-231 cells assessed as reduction in cell viability after 72 hrs by MTT assay; conditions: MDA-MB-231, 72 h
[2] = tested on: SW480; assay: Cytotoxicity against human SW480 cells assessed as reduction in cell viability after 72 hrs by MTT assay; conditions: SW480, 72 h
[3] = tested on: SK-MEL-28; assay: Cytotoxicity against human SK-MEL-28 cells assessed as reduction in cell viability after 72 hrs by MTT assay; conditions: SK-MEL-28, 72 h
[4] = tested on: A549; assay: Cytotoxicity against human A549 cells assessed as reduction in cell viability after 72 hrs by MTT assay; conditions: A549, 72 h
[5] = tested on: T47D; assay: Cytotoxicity against human T47D cells assessed as reduction in cell viability after 72 hrs by MTT assay
[6] = tested on: HepG2; assay: Cytotoxicity against human HepG2 cells assessed as reduction in cell viability after 72 hrs by MTT assay; conditions: HepG2, 72 h

SMILES	IC50 [1] [µM]	IC50 [2] [µM]	IC50 [3] [µM]	IC50 [4] [µM]	IC50 [5] [µM]	IC50 [6] [µM]
CC[C@@]12C[C@H]3C[C@]4(CN5CC[C@]67C(=C(C(=O)OC)C[C@@]8(CCO[C@@H]48)[C@H]56)Nc4ccccc47)CN4c5ccccc5[C@@]5(CCN(C[C@H](O)[C@H]1O)[C@@H]25)[C@H]34	> 10	7.8	6.7	> 10	8.7	2.5
COC(=O)C1=C2Nc3ccccc3[C@@]23CCN2C[C@]4(C[C@@H]5C[C@]67CCO[C@H]6CCN6CC[C@@]8(c9cccc(OC)c9N(C4)[C@@]58O)[C@@H]67)[C@@H]4OCC[C@]4(C1)[C@H]23	> 10	> 10	> 10	> 10	> 10	> 10
CCN(CC)Cc1ccc2c(c1O)N1C[C@]3(C[C@@H]4C[C@]56CC(=O)O[C@H]5CCN5CC[C@@]2([C@@H]56)[C@]41O)CN1CC[C@]24C(=C(C(=O)OC)C[C@@]5(CCO[C@@H]35)[C@H]12)Nc1ccccc14	> 10	> 10	> 10	> 10	> 10	> 10
CC[C@@]12C[C@H]3C[C@]4(CN5CC[C@]67C(=C(C(=O)OC)C[C@@]8(CCO[C@@H]48)[C@H]56)Nc4ccccc47)CN4c5ccccc5[C@@]5(CCN(C[C@H](O)[C@H]1O)[C@@H]25)[C@]34O	> 10	> 10	> 10	> 10	9.5	> 10
CC[C@@]12C[C@H]3C[C@@]4(CN5CC[C@]67C(=C(C(=O)OC)C[C@@]8(CCO[C@@H]48)[C@H]56)Nc4ccccc47)CN4c5ccccc5[C@@]5(CCN(C[C@H](O)[C@H]1O)[C@@H]25)[C@]34O	> 10	> 10	> 10	> 10	> 10	> 10
CCN(CC)Cc1ccc2c(c1O)N1C[C@]3(C[C@@H]4C[C@]56CCO[C@H]5CCN5CC[C@@]2([C@@H]56)[C@]41O)CN1CC[C@]24C(=C(C(=O)OC)C[C@@]5(CCO[C@@H]35)[C@H]12)Nc1ccccc14	> 10	> 10	8.3	> 10	> 10	7.4
CC[C@@]12C[C@H]3C[C@]4(CN5CC[C@]67C(=C(C(=O)OC)C[C@@]8(CCO[C@@H]48)[C@H]56)Nc4ccccc47)CN4c5ccccc5[C@@]5(CCN(C[C@H]6O[C@H]61)[C@@H]25)[C@]34O	> 10	7.2	6.4	> 10	5.5	9.6
CC[C@@]12C[C@H]3C[C@]4(CN5CC[C@]67C(=C(C(=O)OC)C[C@@]8(CCO[C@@H]48)[C@H]56)Nc4ccccc47)CN4c5ccccc5[C@@]5(CCN(C[C@H]6O[C@H]61)[C@@H]25)[C@H]34	> 10	> 10	> 10	> 10	> 10	> 10
COC(=O)C1=C2Nc3ccccc3[C@@]23CCN2C[C@]4(C[C@@H]5C[C@]67CC(=O)O[C@H]6CCN6CC[C@@]8(c9cccc(OC)c9N(C4)[C@@]58O)[C@@H]67)[C@@H]4OCC[C@]4(C1)[C@H]23	> 10	> 10	> 10	> 10	> 10	> 10
CC[C@@]12C[C@]3(CC4=C5N(C3)c3ccccc3[C@@]53CCN5C[C@H]6O[C@H]6[C@@](CC)(C4)[C@H]53)C3=Nc4ccccc4[C@@]34CCN(C[C@H]3O[C@H]31)[C@@H]24	> 10	> 10	> 10	> 10	> 10	> 10
CC[C@@]12C[C@H]3C[C@@]4(CN5CC[C@]67C(=C(C(=O)OC)C[C@@]8(CCO[C@@H]48)[C@H]56)Nc4ccccc47)CN4c5ccccc5[C@@]5(CCN(C[C@H]6O[C@H]61)[C@@H]25)[C@H]34	> 10	> 10	> 10	> 10	> 10	> 10
COC(=O)C1=C2Nc3ccccc3[C@@]23CCN2C[C@]4(C[C@@H]5C[C@]67CC(=O)O[C@H]6CCN6CC[C@@]8(c9cccc(OC)c9N(C4)[C@@H]58)[C@@H]67)[C@@H]4OCC[C@]4(C1)[C@H]23 [DEOXYVOBSTUSINE LACTONE]	> 10	> 10	> 10	> 10	> 10	> 10
CC[C@@]12C[C@H]3C[C@@]4(CN5CC[C@]67C(=C(C(=O)OC)C[C@@]8(CCO[C@@H]48)[C@H]56)Nc4ccccc47)CN4c5ccccc5[C@@]5(CCN(C[C@H](O)[C@H]1O)[C@@H]25)[C@H]34	> 10	> 10	> 10	> 10	> 10	> 10
CC[C@@]12C[C@H]3C[C@@]4(CN5CC[C@]67C(=C(C(=O)OC)C[C@@]8(CCO[C@@H]48)[C@H]56)Nc4ccccc47)CN4c5ccccc5[C@@]5(CCN(C[C@H]6O[C@H]61)[C@@H]25)[C@]34O	8.3	> 10	> 10	> 10	> 10	> 10
CC[C@@]12C[C@H]3C[C@@]4(CN5c6ccccc6[C@@]6(CCN(C[C@H]7O[C@H]71)[C@@H]26)[C@H]35)C(=O)N1CC[C@]23C(=C(C(=O)OC)C[C@@]5(CCO[C@@H]45)[C@H]12)Nc1ccccc13	> 10	9.8	6.8	> 10	9.8	6.3
COC(=O)C1=C2Nc3ccccc3[C@@]23CCN2C[C@]4(C[C@@H]5C[C@]67CC(=O)O[C@H]6CCN6CC[C@@]8(c9cccc(O)c9N(C4)[C@@]58O)[C@@H]67)[C@@H]4OCC[C@]4(C1)[C@H]23	> 10	> 10	> 10	> 10	> 10	> 10
CC[C@@]12CC3=C4N(C[C@]5(C3)CN3CC[C@]67C(=C(C(=O)OC)C[C@@]8(CCO[C@@H]58)[C@H]36)Nc3ccccc37)c3ccccc3[C@@]43CCN(C[C@H]4O[C@H]41)[C@@H]23	> 10	> 10	> 10	> 10	> 10	> 10
CC[C@]1(O)C[C@@H]2CN(CCc3c([nH]c4ccccc34)[C@@](C(=O)OC)(c3cc4c(cc3OC)N(C)[C@H]3[C@@](O)(C(=O)OC)[C@H](OC(C)=O)[C@]5(CC)C=CCN6CC[C@]43[C@@H]65)C2)C1 [VINBLASTINE]	0.0425	0.0325	0.0733	0.021	0.0103	0.0093
COC(=O)C1=C2Nc3ccccc3[C@@]23CCN2CC(CC4=C[C@@]5(CCO)CC(C(=O)OC)=C6Nc7ccccc7[C@@]67CCN(C4)[C@@H]57)=C[C@@](CCO)(C1)[C@H]23	> 10	> 10	> 10	> 10	> 10	> 10
